This note sets out measurements from patent US9901097B2, “Agricultural and horticultural fungicidal composition” (Nippon Soda Co., Ltd., priority 2011, dated 2018).

For orientation: inhibition means the drop in the measured response relative to a control, in per cent.

Test [1] deals with cucumber gray mold disease pathogens (Botrytis cinerea). Put plainly: Control test for cucumber gray mold disease (sprayed cucumber seedlings). The settings on record: Botrytis cinerea; for pest or weed control at 400 ppm: drug II alone 400 ppm. The test is classed as in vivo. Here is the method:
The drug I and the drug II were dissolved in an organic solvent and a surfactant, and the prepared mixed emulsifiable concentrate was diluted with water to a predetermined concentration, and sprayed to cucumber seedlings that had been cultivated in unglazed pots (cultivar “Sagamihanjiro” cotyledon stage). Additionally, in Tables, the symbol A indicating the drug I represents a nitrogen-containing heterocyclic compound represented by the formula (A), the symbol B indicating the drug I represents a nitrogen-containing heterocyclic compound represented by the formula (B), and the symbol C indicating the drug I represents a nitrogen-containing heterocyclic compound represented by the formula (C). Further, the number indicating the drug II represents each of the compounds described in the numbers described above. Additionally, “-” in Tables represents that the drug was not used.
After air-drying at room temperature, a suspension of the conidia of cucumber gray mold disease pathogens (Botrytis cinerea) was inoculated by dropwise addition and held in a dark room at 20° C. with a high humidity for 3, 4, or 5 days. By investigation on the state of lesion appearance in leaves with comparison with a non-treatment case, the controlling effect was determined. The test was carried out in duplicate. In addition, the expected value of the controlling effect was calculated based on Colby's equation.
At the same time, in Comparative Example, in the case of using the drug I only and the case of using the drug II only, the test was carried out by the same method.
Additionally, the Colby's equation is E=M+N−MN/100. Here, E is the expected value of the controlling effect (%), M is the controlling effect (%) calculated from the measurement with the use of the drug I alone, and N is the controlling effect (%) calculated from the measurement with the use of the drug II alone. Additionally, in Tables, the expected values with the use of the drug alone were the same as the values calculated from the measurement, and were thus not shown.

Another test relates to Botrytis cinerea. Briefly: Sterilization test (growth inhibition of Botrytis cinerea in potato dextrose medium, 96-well microplate, turbidity 405 nm). The test is classed as cell-based. The settings on record: for inhibition at 10 ppm / inhibition at 0.4 ppm / inhibition at 0.08 ppm / inhibition at 0.02 ppm / inhibition at 2 ppm: Botrytis cinerea, read-out: Growth inhibition rate; for inhibition at 0.4 ppm: drug II alone 0.4 ppm; for inhibition at 0.02 ppm: drug II alone 0.02 ppm. The protocol:
The solutions thus obtained were mixed to prepare fungicidal compositions.
Conidia of Botrytis cinerea were added to and dispersed in a potato dextrose culture medium. A fungicidal composition was added thereto and mixed. This was dispensed in a 96-well microplate and cultured at 20° C. for 3 days in a dark setting. Then, the turbidity was measured at a wavelength of 405 nm in a microplate reader. From comparison with the measured value of turbidity in the case of non-treatment (without the addition of the fungicidal composition), the growth inhibition rate of Botrytis cinerea (%) was calculated. The test was carried out in duplicate. Further, the expected value of the growth inhibition was calculated based on Colby's equation.
In addition, the Colby's equation is E=M+N−MN/100. Here, E is the expected value of a growth inhibition rate (%), M is the growth inhibition rate (%) calculated from the measurement with the use of the drug I alone, and N is the growth inhibition rate (%) calculated from the measurement with the use of the drug II alone. Additionally, in Tables, the expected values with the use of the drug alone were not shown, because they were the same as the values calculated from the measurement.
At the concentrations shown in Tables 6 to 8, the drug I and the drug II were dissolved separately in dimethyl sulfoxide. The obtained solution was mixed to prepare a fungicidal composition.
Using the same methods as in Example 1 and Comparative Example 1, the sterilization test was carried out. Additionally, in Tables, the expected values with the use of the drug alone were not shown, because they were the same as the values calculated from the measurement.

The mark [2] stands for this setting: Example 1 (Tables 1-5), drug II alone 10 ppm.
The mark [3] stands for this setting: Example 1 (Tables 1-5), drug II alone 2 ppm.
Setting [4] is: Example 2 (Tables 6-8), drug II alone 10 ppm.
Where [5] appears, read: 120 h, 5 days after inoculation, read-out: Control effect (%).
Where [6] appears, read: Example 1 (Tables 1-5), drug II alone 0.08 ppm.

Read-outs that look alike come from different tables or passages of the source.

Regarding `CCOCn1c(-c2ccc(Cl)cc2)c(C#N)c(Br)c1C(F)(F)F` [Drug 59, Chlorfenapyr], the pest or weed control at 400 ppm in test [1] (96 h, 4 days after inoculation, read-out: Control effect (%)) came out at 0%.

For the compound `Cc1ccc(-c2c(Cl)nc(C#N)n2S(=O)(=O)N(C)C)cc1` [Drug 14, Cyazofamid], in the test on Botrytis cinerea (setting [2]), the inhibition at 10 ppm turned out to be 0%.

In the test on Botrytis cinerea (setting [3]), `Fc1ccc(Oc2ccnc3cc(Cl)cc(Cl)c23)cc1` [Drug 17, Quinoxifen] returned a Growth inhibition rate of 0%.

With `O=C(Nc1ccccc1-c1ccc(Cl)cc1)c1cccnc1Cl` [Drug 58, Boscalid], the pest or weed control at 0.4 ppm in test [1] (96 h, 4 days after inoculation, drug II alone 0.4 ppm, read-out: Control effect (%)) is 0%. The pest or weed control at 1.6 ppm in test [1] (96 h, 4 days after inoculation, drug II alone 1.6 ppm, read-out: Control effect (%)) worked out at 0%. Moreover, in test [1] (96 h, 4 days after inoculation, drug II alone 6.3 ppm, read-out: Control effect (%)), the pest or weed control at 6.3 ppm was 39%.

Consider `CC(C)N1C(=O)N(c2ccccc2)CS/C1=N\C(C)(C)C` [Drug 57, Buprofezin], for which the inhibition at 10 ppm in the test with Botrytis cinerea (setting [4]) amounted to 0%.

As to `CCC(C)(NC(=O)c1cc(Cl)c(C)c(Cl)c1)C(=O)CCl` (stereo not drawn) [Drug 12, Zoxamide], the inhibition at 0.4 ppm in the test with Botrytis cinerea (Example 1 (Tables 1-5)) was determined as 3%.

Consider `Cc1c(Cl)cc(-c2ccc(=O)[nH]n2)cc1Cl` [Drug 19, Diclomezin], for which, in the test on Botrytis cinerea (setting [2]), the Growth inhibition rate is reported as 0%.

Consider Manzeb [Drug 32], for which the Growth inhibition rate in the test with Botrytis cinerea (setting [3]) stood at 11%.

Turning to `CN/C(=N/CC1CCOC1)N[N+](=O)[O-]` (stereo not drawn) [Drug 51, Dinotefuran], the inhibition at 10 ppm in the test with Botrytis cinerea (setting [4]) worked out at 0%.

Consider `CCc1ccc(C(=O)NN(C(=O)c2cc(C)cc(C)c2)C(C)(C)C)cc1` [Drug 44, Tebufenozide], for which the inhibition at 10 ppm with Botrytis cinerea (setting [4]) turned out to be 0%. Also, the pest or weed control at 400 ppm in test [1] (96 h, Table 11, 4 days after inoculation, read-out: Control effect) worked out at 22%; in test [1] (setting [5]), 0%.

For `CC(C)Oc1cccc(NC(=O)c2ccccc2C(F)(F)F)c1` [Drug 18, Flutolanil], the inhibition at 10 ppm with Botrytis cinerea (setting [2]) was 0%.

As to `O=C(NCCc1ncc(C(F)(F)F)cc1Cl)c1ccccc1C(F)(F)F` [Drug 30, Fluopyram], the inhibition at 0.08 ppm in the test on Botrytis cinerea (setting [6]) was 16%.

For the compound `CN/C(=N\[N+](=O)[O-])NCc1cnc(Cl)s1` [Drug 47, Clothianidin], the inhibition at 10 ppm in the test with Botrytis cinerea (setting [4]) was 4%.

Consider `CC1=NNC(=O)N(/N=C/c2cccnc2)C1` [Drug 55, Pymetrozine], for which the inhibition at 10 ppm in the test with Botrytis cinerea (setting [4]) was determined as 3%.

Turning to `N#Cc1c(Cl)c(Cl)c(Cl)c(C#N)c1Cl` [Drug 25, Chlorothalonil], the inhibition at 0.08 ppm in the test on Botrytis cinerea (setting [6]) came to 4%.

For the compound `C/C(=N\C#N)N(C)Cc1ccc(Cl)nc1` [Drug 42, Acetamiprid], in the test with Botrytis cinerea (setting [4]), the inhibition at 10 ppm was determined as 0%. The pest or weed control at 25 ppm in test [1] (96 h, 4 days after inoculation, drug II alone 25 ppm, read-out: Control effect (%)) worked out at 0%. In test [1] (setting [5]), the pest or weed control at 400 ppm was found to be 0%.

On to `CN(C)C(=S)SSC(=S)N(C)C` [Drug 24, Thiram], for which the inhibition at 0.08 ppm in the test with Botrytis cinerea (setting [6]) worked out at 30%.

For `CC(C)OC(=O)N[C@H](C(=O)N[C@H](C)c1nc2ccc(F)cc2s1)C(C)C` [Drug 8, Benthiavalicarb-isopropyl], in the test with Botrytis cinerea (setting [2]), the inhibition at 10 ppm worked out at 0%.

As for `COP(=S)(OC)Oc1c(Cl)cc(C)cc1Cl` [Drug 35, Tolclofos-methyl], the inhibition at 10 ppm in the test with Botrytis cinerea (setting [2]) amounted to 35%.

As for `CCO[PH](=O)O` [Drug 13, Fosetyl], the inhibition at 0.08 ppm with Botrytis cinerea (setting [6]) turned out to be 2%.

`O=C1c2ccccc2C(=O)N1SC(Cl)(Cl)Cl` [Drug 37, Folpet]: in the test with Botrytis cinerea (Example 1 (Tables 1-5)), the inhibition at 0.02 ppm is 10%.

As for `O=C1C2CC=CCC2C(=O)N1SC(Cl)(Cl)Cl` (stereo not drawn) [Drug 33, Captan], in the test with Botrytis cinerea (Example 1 (Tables 1-5)), the inhibition at 0.02 ppm stood at 28%.

For the compound `COc1cc(C)c(C(=O)c2c(OC)ccc(Br)c2C)c(OC)c1OC` [Drug 16, Metrafenone], the inhibition at 10 ppm in the test with Botrytis cinerea (setting [2]) stood at 0%.

Consider `CC(C)OC(=O)C(C(=O)OC(C)C)=C1SCCS1` [Drug 41, Isoprothiolane], for which the inhibition at 10 ppm in the test with Botrytis cinerea (setting [4]) amounted to 10%.

Take `CCNC(=O)NC(=O)/C(C#N)=N/OC` [Drug 7, Cymoxanil]: the inhibition at 2 ppm in the test with Botrytis cinerea (setting [3]) was found to be 0%.

As for `C[C@@]1(c2ccc(Oc3ccccc3)cc2)OC(=O)N(Nc2ccccc2)C1=O` (racemic) [Drug 9, Famoxadone], the inhibition at 2 ppm in the test on Botrytis cinerea (setting [3]) stood at 0%.

The compound `CCCOc1nc2ccc(I)cc2c(=O)n1CCC` [Drug 15, Proquinazid] yielded a Growth inhibition rate in the test on Botrytis cinerea (setting [2]) of 0%.

On to `CC(C)NC(=O)N1CC(=O)N(c2cc(Cl)cc(Cl)c2)C1=O` [Drug 36, Iprodione], for which the inhibition at 0.4 ppm in the test with Botrytis cinerea (Example 1 (Tables 1-5)) stood at 39%.

For the compound `Cc1nc(C(F)(F)F)c(C(=O)Nc2c(Br)cc(OC(F)(F)F)cc2Br)s1` [Drug 56, Thifluzamide], the inhibition at 10 ppm in the test on Botrytis cinerea (setting [4]) turned out to be 28%.

As for `Cc1cc(C(F)(F)F)nn1CC(=O)N1CCC(c2nc(C(=O)N(C)C3CCCc4ccccc43)cs2)CC1` (stereo not drawn) [Drug 39], the inhibition at 10 ppm with Botrytis cinerea (setting [2]) is 13%.

In the case of `CCOP(=S)(OCC)Oc1nc(Cl)c(Cl)cc1Cl` [Drug 48, Chlorpyrifos], the inhibition at 10 ppm in the test with Botrytis cinerea (setting [4]) came to 0%.

In the case of `N#Cc1nn(-c2c(Cl)cc(C(F)(F)F)cc2Cl)c(N)c1[S+]([O-])C(F)(F)F` (stereo not drawn) [Drug 53, Fipronil], the inhibition at 10 ppm with Botrytis cinerea (setting [4]) is 12%.

`CON=C(C(=O)OC)c1ccccc1CON=C(C)c1cccc(C(F)(F)F)c1` [Drug 26, Trifloxystrobin]: the inhibition at 0.08 ppm with Botrytis cinerea (setting [6]) amounted to 32%.

For `CS/C(C)=N\OC(=O)N(C)SN(C)C(=O)O/N=C(\C)SC` [Drug 49, Thiodicarb], in the test on Botrytis cinerea (setting [4]), the inhibition at 10 ppm came to 0%.

Turning to `O=[N+]([O-])NC1=NCCN1Cc1ccc(Cl)nc1` [Drug 45, Imidacloprid], in the test on Botrytis cinerea (setting [4]), the inhibition at 10 ppm was 0%.

Turning to `CO/C=C(/C(=O)OC)c1ccccc1Oc1cc(Oc2ccccc2C#N)ncn1` [Drug 27, Azoxystrobin], the Growth inhibition rate in the test on Botrytis cinerea (setting [6]) was 30%.

Take Spinosad [Drug 50]: the Growth inhibition rate with Botrytis cinerea (setting [4]) worked out at 0%.

The compound `O=C(NCc1ncc(C(F)(F)F)cc1Cl)c1c(Cl)cccc1Cl` [Drug 11, Fluopicolide] displayed a Growth inhibition rate in the test with Botrytis cinerea (setting [2]) of 6%.

For the compound `CCOc1ccc(C(C)(C)COCc2cccc(Oc3ccccc3)c2)cc1` [Drug 52, Etofenprox], in the test with Botrytis cinerea (setting [4]), the inhibition at 10 ppm is 4%.

With `Cc1cc(C2CC2)nc(Nc2ccccc2)n1` [Drug 34, Cyprodinil], the inhibition at 0.02 ppm with Botrytis cinerea (Example 1 (Tables 1-5)) was found to be 0%.

`CCCCCCCCc1c(CC)nc2ncnn2c1N` [Drug 10, Ametoctradin] displayed a Growth inhibition rate in the test with Botrytis cinerea (setting [2]) of 0%.

Turning to `COCC(=O)N(c1c(C)cccc1C)C(C)C(=O)OC` (stereo not drawn) [Drug 6, Metalaxyl], the inhibition at 10 ppm with Botrytis cinerea (setting [2]) was found to be 0%.

`CN1COCN(Cc2cnc(Cl)s2)/C1=N\[N+](=O)[O-]` [Drug 46, Thiamethoxam]: the inhibition at 10 ppm in the test on Botrytis cinerea (setting [4]) stood at 0%.

`CO/N=C(/C(=O)OC)c1ccccc1COc1ccccc1C` [Drug 28, Kresoxim-methyl]: the inhibition at 0.08 ppm with Botrytis cinerea (setting [6]) amounted to 20%.

With `N#Cc1c[nH]cc1-c1cccc2c1OC(F)(F)O2` [Drug 20, Fludioxonil], the inhibition at 0.02 ppm in the test on Botrytis cinerea (Example 1 (Tables 1-5)) stood at 39%.

Take `CC1=C(C(=O)Nc2ccccc2)SCCO1` [Drug 23, Carboxin]: in the test on Botrytis cinerea (Example 1 (Tables 1-5)), the inhibition at 0.4 ppm was determined as 0%.

For `CC[S+]([O-])c1c(C#N)nn(-c2c(Cl)cc(C(F)(F)F)cc2Cl)c1N` (stereo not drawn) [Drug 54, Ethiprole], the inhibition at 10 ppm in the test on Botrytis cinerea (setting [4]) came out at 2%.

In the test with Botrytis cinerea (setting [4]), `CNC(=O)/C(=N/OC)c1ccccc1CO/N=C(C)/C(=N/OC)C(/C)=N/OC` [Drug 40, Orysastrobin] showed a Growth inhibition rate of 58%.

Consider `CC(C)(C)C(O)(CCc1ccc(Cl)cc1)Cn1cncn1` (stereo not drawn) [Drug 22, Tebuconazole], for which the inhibition at 0.08 ppm with Botrytis cinerea (setting [6]) amounted to 34%.

Regarding `O=[N+]([O-])c1cc(C(F)(F)F)c(Cl)c([N+](=O)[O-])c1Nc1ncc(C(F)(F)F)cc1Cl` [Drug 31, Fluazinam], the inhibition at 0.02 ppm with Botrytis cinerea (Example 1 (Tables 1-5)) came out at 20%.

As for `CC1COC(Cn2cncn2)(c2ccc(Oc3ccc(Cl)cc3)cc2Cl)O1` (stereo not drawn) [Drug 21, Difenoconazole], in the test on Botrytis cinerea (Example 1 (Tables 1-5)), the inhibition at 0.4 ppm was found to be 36%.
